Experimental data reported in patent publication US10570131B2, “Heterocyclic compounds and their use in preventing or treating bacterial infections” (MUTABILIS, priority 2015, dated 2020).
Structures can show the parent of a compound that is named as a salt.

Tests used:
CTX-M-15 = target: T1, CTX-M-15 (Escherichia coli, UniProt Q9EXV5); test: β-lactamase inhibitory activity, IC50 (nitrocefin hydrolysis); type: biochemical
T1 construct: made in house; host or cells: E. coli expression vector
Procedure: (§1) Method 1: β-lactamase Inhibitory Activity, Determination of IC50 (Table 1)
(§2) Enzyme activity was monitored by spectrophotometric measurement of nitrocefin (NCF—TOKU-E, N005) hydrolysis at 485 nm, at room temperature and in assay buffer A: 100 mM Phosphate pH7, 2% glycerol and 0.1 mg/mL Bovine serum albumin (Sigma, B4287). Enzymes were cloned in E. coli expression vector, expressed and purified in house using classical procedures. To a transparent polystyrene plate (Corning, 3628) were added in each well 5 μL DMSO or inhibitor dilutions in DMSO and 80 μL enzyme in buffer A. Plates were immediately read at 485 nm in a microplate spectrophotometer (BioTek, PowerWave HT) to enable background subtraction. After 30 min of pre-incubation at room temperature, 15 μL of NCF (200 μM final) were finally added in each well. Final enzyme concentrations were 0.1 nM (TEM-1), 0.075 nM (SHV-1), 0.4 nM (CTX-M-15), 1 nM (KPC-2), 0.2 nM (P99 AmpC), 0.2 nM (CMY-37), 0.4 nM (AmpC P. aeruginosa), 0.2 nM (OXA-1), 1.2 nM (OXA-11), 0.4 nM (OXA-15) and 0.3 nM (OXA-48). After 20 min incubation at room temperature, plates were once again read at 485 nm. Enzyme activity was obtained by subtracting the final signal by the background, and was converted to enzyme inhibition using non inhibited wells. IC50 curves were fitted to a classical Langmuir equilibrium model with Hill slope using XLFIT (IDBS).

KPC-2 = target: T2, KPC-2 (Klebsiella pneumoniae, UniProt Q9F663); test: as above; type: biochemical
T2 construct: made in house; host or cells: E. coli expression vector
T2 sequence (Q9F663 25-293 limits assumed): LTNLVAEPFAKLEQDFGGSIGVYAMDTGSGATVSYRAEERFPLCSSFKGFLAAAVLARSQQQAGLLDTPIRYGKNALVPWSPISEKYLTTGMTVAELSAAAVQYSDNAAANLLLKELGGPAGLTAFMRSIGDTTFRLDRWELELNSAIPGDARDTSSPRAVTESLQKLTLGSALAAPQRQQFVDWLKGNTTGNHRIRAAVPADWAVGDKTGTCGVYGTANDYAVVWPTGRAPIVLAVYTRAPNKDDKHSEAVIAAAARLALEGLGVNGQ
Procedure: as §1, §2

OXA-1 = target: T3, OXA-1 (Escherichia coli, UniProt P13661); test: as above; type: biochemical
T3 construct: made in house; host or cells: E. coli expression vector
T3 sequence (P13661 26-276): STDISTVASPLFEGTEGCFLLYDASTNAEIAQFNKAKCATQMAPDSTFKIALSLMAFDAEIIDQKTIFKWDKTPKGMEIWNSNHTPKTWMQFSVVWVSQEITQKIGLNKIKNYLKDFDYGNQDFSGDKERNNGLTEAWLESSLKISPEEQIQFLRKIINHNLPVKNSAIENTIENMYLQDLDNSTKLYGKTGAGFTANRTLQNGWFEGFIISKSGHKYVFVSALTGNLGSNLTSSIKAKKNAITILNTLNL
Procedure: as §1, §2

OXA-11 = target: T4, OXA-11 (Pseudomonas aeruginosa, UniProt Q06778); test: as above; type: biochemical
T4 construct: made in house; host or cells: E. coli expression vector
T4 sequence (Q06778 21-266): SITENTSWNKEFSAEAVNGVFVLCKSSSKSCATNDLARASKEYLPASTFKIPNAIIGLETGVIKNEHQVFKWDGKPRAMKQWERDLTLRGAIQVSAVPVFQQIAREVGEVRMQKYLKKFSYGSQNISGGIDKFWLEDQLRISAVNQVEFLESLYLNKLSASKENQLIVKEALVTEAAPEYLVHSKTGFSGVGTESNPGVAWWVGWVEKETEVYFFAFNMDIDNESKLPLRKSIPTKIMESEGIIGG
Procedure: as §1, §2

OXA-48 = target: T5, OXA-48 (Klebsiella pneumoniae, UniProt Q6XEC0); test: as above; type: biochemical
T5 construct: made in house; host or cells: E. coli expression vector
T5 sequence (Q6XEC0 23-265 limits assumed): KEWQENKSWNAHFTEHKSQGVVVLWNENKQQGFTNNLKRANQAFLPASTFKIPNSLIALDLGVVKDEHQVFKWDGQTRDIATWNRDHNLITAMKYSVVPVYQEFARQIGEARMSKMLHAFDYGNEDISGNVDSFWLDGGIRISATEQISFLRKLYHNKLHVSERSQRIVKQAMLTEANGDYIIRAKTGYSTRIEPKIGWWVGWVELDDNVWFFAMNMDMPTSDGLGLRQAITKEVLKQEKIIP
Procedure: as §1, §2

SHV-1 = target: T6, SHV-1 (Klebsiella pneumoniae, UniProt P0AD64); test: as above; type: biochemical
T6 construct: made in house; host or cells: E. coli expression vector
T6 sequence (P0AD64 22-286): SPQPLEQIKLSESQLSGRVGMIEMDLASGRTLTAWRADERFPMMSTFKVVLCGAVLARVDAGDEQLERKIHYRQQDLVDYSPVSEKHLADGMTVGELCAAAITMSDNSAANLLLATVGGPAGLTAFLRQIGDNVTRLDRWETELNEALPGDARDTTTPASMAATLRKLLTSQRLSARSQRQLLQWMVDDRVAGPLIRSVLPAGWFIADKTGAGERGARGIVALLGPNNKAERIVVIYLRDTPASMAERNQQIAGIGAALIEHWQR
Procedure: as §1, §2

TEM-1 = target: T7, TEM-1 (Escherichia coli, UniProt P62593); test: as above; type: biochemical; details: class (A); 30 min pre-incubation; NCF 200 μM
T7 construct: made in house; host or cells: E. coli expression vector
T7 sequence (P62593 24-286 limits assumed): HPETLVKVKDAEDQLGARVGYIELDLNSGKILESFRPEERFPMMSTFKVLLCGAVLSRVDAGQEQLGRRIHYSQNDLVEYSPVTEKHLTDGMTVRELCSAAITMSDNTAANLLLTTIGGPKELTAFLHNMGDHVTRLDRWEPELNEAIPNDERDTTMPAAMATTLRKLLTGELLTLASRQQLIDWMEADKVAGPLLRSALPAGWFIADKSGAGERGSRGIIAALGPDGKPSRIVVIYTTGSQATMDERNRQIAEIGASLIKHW
Procedure: as §1, §2

AmpC (P99) = target: T8, AmpC (P99) (Enterobacter cloacae, UniProt P05364); test: biochemical
T8 construct: made in house; host or cells: E. coli expression vector
T8 sequence (P05364 21-381): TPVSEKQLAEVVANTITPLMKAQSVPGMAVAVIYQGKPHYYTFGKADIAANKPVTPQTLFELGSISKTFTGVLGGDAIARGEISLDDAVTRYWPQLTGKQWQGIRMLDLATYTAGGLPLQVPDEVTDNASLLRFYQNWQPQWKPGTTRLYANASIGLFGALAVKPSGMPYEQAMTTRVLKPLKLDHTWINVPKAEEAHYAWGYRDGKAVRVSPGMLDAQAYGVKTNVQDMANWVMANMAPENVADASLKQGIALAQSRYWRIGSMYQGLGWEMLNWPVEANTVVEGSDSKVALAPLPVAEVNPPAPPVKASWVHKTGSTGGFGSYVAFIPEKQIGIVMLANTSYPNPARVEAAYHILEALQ
Procedure: as §1, §2

OXA-15 = target: T9, OXA-15 (Pseudomonas aeruginosa, UniProt Q51574); test: biochemical
T9 construct: made in house; host or cells: E. coli expression vector
T9 sequence (Q51574 22-275): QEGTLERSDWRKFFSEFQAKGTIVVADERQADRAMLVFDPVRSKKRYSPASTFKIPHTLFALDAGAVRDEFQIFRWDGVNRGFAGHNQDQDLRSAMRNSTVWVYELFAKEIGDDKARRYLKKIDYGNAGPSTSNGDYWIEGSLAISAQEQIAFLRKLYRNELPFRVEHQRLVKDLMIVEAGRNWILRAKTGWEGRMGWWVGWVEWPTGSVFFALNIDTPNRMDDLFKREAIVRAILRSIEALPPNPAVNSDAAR
Procedure: as §1, §2

K. pneumoniae UFR68 = type: cell-based; details: MIC of ceftazidime with compound fixed at 4 μg/mL; strain UFR68 (TEM-1, SHV-11, CTX-M-15, KPC-3)
E. cloacae UFR85 = test: MIC of ceftazidime alone and in combination with compounds (synergy), broth microdilution; type: cell-based; details: MIC of ceftazidime with compound fixed at 4 μg/mL; strain UFR85 (TEM-1, CTX-M-15, derepressed AmpC)
E. cloacae UFR70 = test: as above; type: cell-based; details: MIC of ceftazidime with compound fixed at 4 μg/mL; strain UFR70 (TEM-1, CTX-M-15, CMY-2, OXA-1, Porin loss)
E. coli 131119 = test: as above; type: cell-based; details: MIC of ceftazidime with compound fixed at 4 μg/mL; strain 131119 (TEM-1, OXA-48)
Procedure: (§3) Compounds of the present invention were assessed against genotyped bacterial strains alone or in combination with the β-lactam ceftazidime (CAZ). […] Briefly, compounds alone according to the invention were prepared in DMSO and spotted (2 μL each) on sterile polystyrene plates (Corning, 3788). […] Log phase bacterial suspensions were adjusted to a final density of 5×10^5 cfu/mL in cation-adjusted Mueller-Hinton broth (Becton-Dickinson) and added to each well (98 μL). Microplates were incubated for 16-20 h at 35° C. in ambient air. The MIC of the compounds was defined as the lowest concentration of said compounds that prevented bacterial growth as read by visual inspection.

E. coli RGN238 = test: as above; type: cell-based; details: MIC of ceftazidime with compound fixed at 4 μg/mL; strain RGN238 (OXA-1)
Procedure: as §3

E. coli UFR74 = test: as above; type: cell-based; details: MIC of ceftazidime with compound fixed at 4 μg/mL; strain UFR74 (SHV-1, DHA-1)
Procedure: as §3

K. pneumoniae 6299 = test: as above; type: cell-based; details: MIC of ceftazidime with compound fixed at 4 μg/mL; strain 6299 (TEM-1, SHV-11, OXA-163)
Procedure: as §3

K. pneumoniae BAA-1898 = test: as above; type: cell-based; details: MIC of ceftazidime with compound fixed at 4 μg/mL; strain BAA-1898 (TEM-1, SHV-11, SHV-12, KPC-2)
Procedure: as §3

K. pneumoniae UFR77 = test: as above; type: cell-based; details: MIC of ceftazidime with compound fixed at 4 μg/mL; strain UFR77 (CMY-2)
Procedure: as §3

P. aeruginosa CIP105250 = test: as above; type: cell-based; details: MIC of ceftazidime with compound fixed at 4 μg/mL; strain CIP105250 (OXA-15)
Procedure: as §3

P. aeruginosa CIP107051 = test: as above; type: cell-based; details: MIC of ceftazidime with compound fixed at 4 μg/mL; strain CIP107051 (TEM-24)
Procedure: as §3

E. coli UFR18 = test: as above; type: cell-based; details: MIC of ceftazidime with compound fixed at 4 μg/mL; strain UFR18 (CTX-M-15, OXA-204)
E. coli UFR32 = test: as above; type: cell-based; details: MIC of ceftazidime with compound fixed at 4 μg/mL; strain UFR32 (TEM-1, VEB-1, OXA-10)

T1 sequence (Q9EXV5 entry or part of it): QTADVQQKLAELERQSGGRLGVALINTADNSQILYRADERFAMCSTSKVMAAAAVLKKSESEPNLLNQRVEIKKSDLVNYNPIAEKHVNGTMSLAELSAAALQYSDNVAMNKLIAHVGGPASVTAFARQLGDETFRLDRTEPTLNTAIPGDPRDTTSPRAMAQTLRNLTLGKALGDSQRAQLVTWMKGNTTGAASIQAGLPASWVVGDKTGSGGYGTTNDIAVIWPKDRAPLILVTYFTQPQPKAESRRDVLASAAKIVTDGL

| SMILES | IC50 (CTX-M-15) [nM] | IC50 (KPC-2) [nM] | IC50 (OXA-1) [nM] | IC50 (OXA-11) [nM] | IC50 (OXA-48) [nM] | IC50 (SHV-1) [nM] | IC50 (TEM-1) [nM] | IC50 (AmpC (P99)) [nM] | IC50 (OXA-15) [nM] | MIC, combination of CAZ and compounds of the invention at 4 μg/mL (K. pneumoniae UFR68) [µg/mL] | MIC, combination of CAZ and compounds of the invention at 4 μg/mL (E. cloacae UFR85) [µg/mL] | MIC, combination of CAZ and compounds of the invention at 4 μg/mL (E. cloacae UFR70) [µg/mL] | MIC, combination of CAZ and compounds of the invention at 4 μg/mL (E. coli 131119) [µg/mL] | MIC, combination of CAZ and compounds of the invention at 4 μg/mL (E. coli RGN238) [µg/mL] | MIC, combination of CAZ and compounds of the invention at 4 μg/mL (E. coli UFR74) [µg/mL] | MIC, combination of CAZ and compounds of the invention at 4 μg/mL (K. pneumoniae 6299) [µg/mL] | MIC, combination of CAZ and compounds of the invention at 4 μg/mL (K. pneumoniae BAA-1898) [µg/mL] | MIC, combination of CAZ and compounds of the invention at 4 μg/mL (K. pneumoniae UFR77) [µg/mL] | MIC, combination of CAZ and compounds of the invention at 4 μg/mL (P. aeruginosa CIP105250) [µg/mL] | MIC, combination of CAZ and compounds of the invention at 4 μg/mL (P. aeruginosa CIP107051) [µg/mL] | further results |
| --- | --- | --- | --- | --- | --- | --- | --- | --- | --- | --- | --- | --- | --- | --- | --- | --- | --- | --- | --- | --- | --- |
| CNC(=O)CON=C1C[C@@H](C(N)=O)N2C[C@@H]1N(OS(=O)(=O)[O-])C2=O.[Na+] (mixture of isomers) [Example 2, sodium [(2S,5S)-2-carbamoyl-4-[2-(methylamino)-2-oxo-ethoxy]imino-7-oxo-1,6-diazabicyclo[3.2.1]octan-6-yl] sulfate] | 0.76 | 3.9 | 6.1 | 6.8 | 3.5 | 0.74 | 1.7 | 3.2 | 0.84 | 64 | 1 | 8 | ≤0.25 | ≤0.25 | 0.5 | 2 | 64 | 32 | 64 | 16 | MIC, combination of CAZ and compounds of the invention at 4 μg/mL (E. coli UFR18): 1 µg/mL; MIC, combination of CAZ and compounds of the invention at 4 μg/mL (E. coli UFR32): 0.5 µg/mL |
| NC[C@@H]1CC(=NOCC(N)=O)[C@@H]2CN1C(=O)N2OS(=O)(=O)O (mixture of isomers) [Example 5, sodium and 2,2,2-trifluroacetate [(2S,5S)-4-(2-amino-2-oxo-ethoxy)imino-2-(azaniumylmethyl)-7-oxo-1,6-diazabicyclo[3.2.1]octan-6-yl] sulfate] | 130 | 1800 | 370 | 430 | 180 | 64 | 110 | 11000 | 8 | 1 | ≤0.25 | 1 | <0.25 | ≤0.25 | 1 | 0.25 | 0.5 | 2 | ≤0.25 | <0.25 | MIC, combination of CAZ and compounds of the invention at 4 μg/mL (E. coli UFR18): <0.25 µg/mL; MIC, combination of CAZ and compounds of the invention at 4 μg/mL (E. coli UFR32): ≤0.25 µg/mL |
| NC[C@@H]1CC(=O)[C@@H]2CN1C(=O)N2OS(=O)(=O)O [Example 6, 2,2,2-trifluroacetate and sodium [(2S,5S)-2-(azaniumylmethyl)-4,7-dioxo-1,6-diazabicyclo[3.2.1]octan-6-yl] sulfate] | 510 | 5100 | 1200 | 1600 | 840 | 340 | 280 | 6400 | 68 | 1 | ≤0.25 | 2 | ≤0.25 | ≤0.25 | 0.5 | 2 | 1 | 2 | 2 | 0.125 | MIC, combination of CAZ and compounds of the invention at 4 μg/mL (E. coli UFR18): ≤0.25 µg/mL; MIC, combination of CAZ and compounds of the invention at 4 μg/mL (E. coli UFR32): <0.25 µg/mL |
